According to patent EP2832223A1, “HERBICIDAL COMPOSITION” (Ishihara Sangyo Kaisha, Ltd., priority 2012, dated 2013):

Key:
Type in all cases: in vivo
[1] = tested on: wild oat (Avena fatua L.); assay: Test Example 2: pot test, soil treatment, visual growth inhibition; settings: 28th day after treatment, read-out: Growth inhibition rate (%) of wild oat Measured value
Method: Upland field soil was put into a 1/500,000 ha pot, and seeds of wild oat (Avena fatua L.) were sown. On the next day, predetermined amounts of ONEHOPE NYUZAI (tradename), Click (tradename) and SC formulation containing mesotrione as an active ingredient (tradename: Callisto, manufactured by Syngenta) were diluted with water (in an amount corresponding to 1,000 L/ha) and applied for soil treatment by a small sprayer.
(§1) On the 28th day after treatment, the state of growth of the wild oat was visually observed to determine the growth inhibition rate (%). The growth inhibition rate (%) (measured value) and the growth inhibition rate (%) calculated in the same manner as in the above Test Example 1 are shown in Table 2.

[2] = tested on: velvetleaf (Abutilon theophrasti Medic.); assay: Test Example 16: pot test, soil and foliar treatment, visual growth inhibition; settings: soil treatment and foliar treatment, 29th day after treatment, read-out: Growth inhibition rate (%) of velvetleaf Measured value
Description: Upland field soil was put into a 1/1,000,000 ha pot, and seeds of velvetleaf (Abutilon theophrasti Medic.) were sown. When the velvetleaf reached 4.0 to 4.3-leaf stage, seeds of velvetleaf were further sown in the same pot assuming conditions such that weeds would later grow. Three days later, predetermined amounts of ONEHOPE NYUZAI (tradename), Click (tradename), Callisto (tradename), Mikado (tradename), a wettable powder containing bicyclopyrone as an active ingredient and Clio (tradename) were diluted with water in an amount corresponding to 300 L/ha and applied for soil treatment and for foliar treatment by a small sprayer.
as §1, with “29th” for “28th”, “velvetleaf” for “wild oat”, “16.” for “2.”

[3] = tested on: korean lespedeza (Kummerowia stipulacea (Maxim.) Makino); assay: Test Example 6: pot test, soil treatment, visual growth inhibition; settings: soil treatment, 14th day after treatment, read-out: Growth inhibition rate (%) of korean lespedeza Measured value
Method: Upland field soil was put into a 1/300,000 ha pot, and seeds of korean lespedeza (Kummerowia stipulacea (Maxim.) Makino) were sown. On the next day, predetermined amounts of ONEHOPE NYUZAI (tradename), Click (tradename), Mikado (tradename) and a wettable powder containing bicyclopyrone prepared in accordance with a conventional formulation method were diluted with water (in an amount corresponding to 1,000 L/ha) and applied for soil treatment by a small sprayer.
as §1, with “14th” for “28th”, “korean lespedeza” for “wild oat”, “6.” for “2.”

| SMILES | inhibition at 30 g/ha ([1]; 30 g/ha) [%] | inhibition at 30 g/ha ([2]; 30 g/ha) [%] | inhibition at 10 g/ha ([3]; 10 g/ha) [%] | inhibition at 100 g/ha ([3]; 100 g/ha) [%] | inhibition at 500 g/ha ([1]; 500 g/ha) [%] | inhibition at 500 g/ha ([2]; 500 g/ha) [%] | inhibition at 1000 g/ha ([2]; 1000 g/ha) [%] | inhibition at 200 g/ha ([3]; 200 g/ha) [%] | inhibition at 2000 g/ha ([3]; 2000 g/ha) [%] |
| --- | --- | --- | --- | --- | --- | --- | --- | --- | --- |
| COc1cc(OC)nc(NC(=O)NS(=O)(=O)c2ncccc2C(=O)N(C)C)n1 [Nicosulfuron, 2-(4,6-dimethoxypyrimidin-2-ylcarbamoylsulfamoyl)-N,N-dimethylnicotinamide] | 70 | 0 | 0 | 0 |  |  |  |  |  |
| CCNc1nc(Cl)nc(NC(C)(C)C)n1 [Terbuthylazine, N^2-tert-butyl-6-chloro-N^4-ethyl-1,3,5-triazine-2,4-diamine] |  |  |  |  | 60 | 15 | 18 | 10 | 25 |
